Data taken from article PMC5748155 (Journal of medicinal chemistry, 2017).

What was measured:
Conditions in all cases: relative to compound 2
[1] = system: HCV replicon D168A variant; format: cell-based, Hepatitis C virus
GT1a WT NS3/4A Protease = GT1a WT NS3/4A Protease (Hepatitis C virus genotype 1a, UniProt P27958); assay: Enzyme inhibition assay, wild-type GT1a protease; format: biochemical
wild-type HCV replicon = format: cell-based, Hepatitis C virus
[2] = system: NS3/4A protease WT and variants; assay: Enzyme inhibition assays, statements across WT protease and variants; format: biochemical, Hepatitis C virus
[3] = system: HCV replicon D168V variant; format: cell-based, Hepatitis C virus

Structure (SMILES): CCc1nc2ccc(OC)cc2nc1O[C@@H]1C[C@H]2C(=O)N[C@]3(C(=O)NS(=O)(=O)C4CC4)C[C@H]3/C=C\CCCCC[C@H](NC(=O)OC3CCCC3)C(=O)N2C1 [Compound 22a, Cyclopentyl ((2R,6S,13aS,14aR,16aS,Z)-14a-((cyclopropylsulfonyl)carbamoyl)-2-((3-ethyl-7-methoxyquinoxalin-2-yl)oxy)-5,16-dioxo-1,2,3,5,6,7,8,9,10,11,13a,14,14a,15,16,16a-hexadecahydrocyclopropa[e]pyrrolo[1,2-a][1,4]diazacyclopentadecin-6-yl)carbamate]
- fold enhanced replicon potency against D168A variant [1]: 2 fold
- fold increase in biochemical potency against WT protease (GT1a WT NS3/4A Protease): 2 fold
- fold enhanced replicon potency against WT HCV (wild-type HCV replicon): 2 fold

Structure (SMILES): CCc1nc2ccccc2nc1O[C@@H]1C[C@H]2C(=O)N[C@]3(C(=O)NS(=O)(=O)C4CC4)C[C@H]3/C=C\CCCCC[C@H](NC(=O)OC(C)(C)C)C(=O)N2C1 [Compound 18g]
- fold decrease in biochemical potency [2]: about 2 fold

Structure (SMILES): COc1ccc2nc(C)c(O[C@@H]3C[C@H]4C(=O)N[C@]5(C(=O)NS(=O)(=O)C6CC6)C[C@H]5/C=C\CCCCC[C@H](NC(=O)OC(C)(C)C)C(=O)N4C3)nc2c1 [Compound 18b]
- fold improvement in replicon potency against D168V variant [3]: ~ 2 fold
